Laboratory results from ChEMBL document CHEMBL1158240, “Phytogrowth-inhibitory and antifungal constituents of Helianthella quinquenervis” (J Nat Prod, 1996).
≈ marks a conversion by molar mass, not a printed value. Values belong to the compound of their own block, whether it stands above or below them. Calls of active or inactive are those of the source. No cut-off for these calls is given here.

Experiments:
Candida albicans = assay: Antimicrobial activity against Candida albicans ATCC 10231 by agar dilution method; assay type: functional, organism-based
[1] = test system: Trichophyton mentagrophytes; assay: Antimicrobial activity against Trichophyton mentagrophytes ATCC 9129 by agar dilution method; assay type: functional
[2] = Toxicity in brine shrimp; assay type: organism-based; conditions: artemia, in vivo
A549 = assay: Cytotoxicity against human A549 cells after 7 days by MTT assay; assay type: functional; conditions: A549, 168 h, read-out: ED50 (the source's name)
[3] = test system: Amaranthus hypochondriacus; assay: Phytogrowth-inhibitory activity against Amaranthus hypochondriacus assessed as inhibition of seedling growth petri dish bioassay; assay type: functional, organism-based
Echinochloa crus-galli = assay: Phytogrowth-inhibitory activity against Echinochloa crus-galli assessed as inhibition of seedling germination by petri dish bioassay; assay type: functional, organism-based
Aspergillus niger = assay: Antimicrobial activity against Aspergillus niger ATCC 16888 by agar dilution method; assay type: functional, organism-based
MCF7 = assay: Cytotoxicity against human MCF7 cells after 7 days by MTT assay; assay type: functional; conditions: MCF7, 168 h, read-out: ED50 (the source's name)
HT-29 = assay: Cytotoxicity against human HT29 cells after 7 days by MTT assay; assay type: functional; conditions: HT-29, 168 h, read-out: ED50 (the source's name)

SMILES: CC(=O)c1cc2c(cc1O)OC(C)(C)C=C2 [DEMETHYLENCECALIN]
- Activity (Candida albicans): inactive
- MIC [1]: 58 µg/mL (≈ 266 µM)
- LC50 [2]: 31 µg/mL (≈ 142 µM)
- EC50 (A549): 10 µg/mL (≈ 45.8 µM)
- IC50 [3]: 27 µg/mL (≈ 124 µM)
- IC50 (Echinochloa crus-galli): 79 µg/mL (≈ 362 µM)
- Activity (Aspergillus niger): inactive
- EC50 (MCF7): 2 µg/mL (≈ 9.16 µM)
- EC50 (HT-29): 2 µg/mL (≈ 9.16 µM)

SMILES: C=C(C)c1cc2cc(C(C)=O)c(O)cc2o1 [EUPARIN]
- Activity (Candida albicans): inactive
- MIC [1]: 29 µg/mL (≈ 134 µM)
- LC50 [2]: 44 µg/mL (≈ 203 µM)
- EC50 (A549): 22 µg/mL (≈ 102 µM)
- IC50 [3]: 111 µg/mL (≈ 513 µM)
- IC50 (Echinochloa crus-galli): 252 µg/mL (≈ 1170 µM)
- Activity (Aspergillus niger): inactive
- EC50 (MCF7): 6 µg/mL (≈ 27.7 µM)
- EC50 (HT-29): 6 µg/mL (≈ 27.7 µM)

SMILES: C=C(C)[C@H]1Cc2cc(C(C)=O)c(OC)cc2O1
- Activity (Candida albicans): inactive
- LC50 [2]: 8 µg/mL (≈ 34.4 µM)
- EC50 (A549): 1 µg/mL (≈ 4.31 µM)
- IC50 [3]: 11 µg/mL (≈ 47.4 µM)
- IC50 (Echinochloa crus-galli): 68 µg/mL (≈ 293 µM)
- Activity (Aspergillus niger): inactive
- EC50 (MCF7): 33 µg/mL (≈ 142 µM)
- EC50 (HT-29): 16 µg/mL (≈ 68.9 µM)

SMILES: COc1cc2c(cc1C(C)=O)C=CC(C)(C)O2 [ENCECALIN]
- Activity (Candida albicans): inactive
- LC50 [2]: 31 µg/mL (≈ 133 µM)
- EC50 (A549): 25 µg/mL (≈ 108 µM)
- IC50 [3]: 7 µg/mL (≈ 30.1 µM)
- IC50 (Echinochloa crus-galli): 6 µg/mL (≈ 25.8 µM)
- Activity (Aspergillus niger): inactive
- EC50 (MCF7): 29 µg/mL (≈ 125 µM)
- EC50 (HT-29): 18 µg/mL (≈ 77.5 µM)

- MIC [1]: 2.6 µg/mL (≈ 7.37 µM)
SMILES: COC1=CC(=O)C[C@@H](C)[C@]12Oc1c(Cl)c(OC)cc(OC)c1C2=O [GRISEOFULVIN]

SMILES: COc1cccc2c1C(=O)c1c(O)c3c(c(O)c1C2=O)C[C@@](O)(C(=O)CO)C[C@@H]3O[C@H]1C[C@H](N)[C@H](O)[C@H](C)O1 [DOXORUBICIN]
- EC50 (A549): 0.002 µg/mL (≈ 0.00368 µM)
- EC50 (MCF7): 0.02 µg/mL (≈ 0.0368 µM)
- EC50 (HT-29): 0.04 µg/mL (≈ 0.0736 µM)

SMILES: CCCCC[C@H]1CCCCCCCCCC(=O)O[C@H]2[C@H](O)[C@@H](CO)O[C@@H](O[C@H]3[C@H](O1)O[C@H](C)[C@H](O)[C@@H]3O)[C@@H]2O[C@@H]1O[C@@H](C)[C@H](OC(=O)[C@@H](C)CC)[C@@H](O[C@@H]2O[C@@H](C)[C@H](O)[C@@H](O)[C@H]2O)[C@H]1OC(=O)[C@@H](C)CC [TRICOLORIN A]
- IC50 [3]: 11 µg/mL (≈ 10.8 µM)
- IC50 (Echinochloa crus-galli): 68 µg/mL (≈ 66.5 µM)

SMILES: C=C(C)[C@@H]1Oc2cc(O)c(C(C)=O)cc2[C@H]1OC
- Activity (Candida albicans): inactive
- LC50 [2]: 68 µg/mL (≈ 274 µM)
- EC50 (A549): 31 µg/mL (≈ 125 µM)
- IC50 [3]: 61 µg/mL (≈ 246 µM)
- IC50 (Echinochloa crus-galli): 323 µg/mL (≈ 1300 µM)
- Activity (Aspergillus niger): inactive
- EC50 (MCF7): 34 µg/mL (≈ 137 µM)
- EC50 (HT-29): 16 µg/mL (≈ 64.4 µM)

SMILES: COC(C)(C)/C=C/c1cc(C(C)=O)ccc1O[C@@H]1O[C@H](CO)[C@@H](O)[C@H](O)[C@H]1O
- Activity (Candida albicans): inactive
- LC50 [2]: > 1000 µg/mL
- EC50 (A549): 6 µg/mL (≈ 15.1 µM)
- IC50 [3]: 148 µg/mL (≈ 373 µM)
- IC50 (Echinochloa crus-galli): 231 µg/mL (≈ 583 µM)
- Activity (Aspergillus niger): inactive
- EC50 (MCF7): 44 µg/mL (≈ 111 µM)
- EC50 (HT-29): 61 µg/mL (≈ 154 µM)
